According to patent US10004701B2, “Methods and compositions for treating infection” (UNIVERSITY OF ROCHESTER, priority 2012, dated 2018):
Converted amounts (≈) assume the structure as drawn. Where two headings read alike, the source gives them in different places.

Assays:
[1] = system: S. aureus; assay: Minimum Inhibitory Concentration (MIC) testing, terfenadine study; type: cell-based; conditions: Staphylococcus aureus, 16 h
[2] = system: E. faecium; assay: AK assay 384-well format, Prestwick library screening; type: cell-based, Enterococcus faecium; conditions: 50 μM final drug concentration; for AK-based Prestwick Library Screening Results: E. faecium (increase in extracellular AK activity) / AK-based Prestwick library screening result, E. faecium (fold increase in extracellular AK activity): planktonic E. faecium; for AK-based Prestwick Library Screening Results: E. faecium (increase in extracellular AK activity): 384-well
[3] = system: P. aeruginosa; assay: as above; type: cell-based, Pseudomonas aeruginosa; conditions: 50 μM final drug concentration; for AK-based Prestwick Library Screening Results: P. aeruginosa (increase in extracellular AK activity) / AK-based Prestwick library screening result, P. aeruginosa (fold increase in extracellular AK activity): planktonic P. aeruginosa; for AK-based Prestwick Library Screening Results: P. aeruginosa (increase in extracellular AK activity): 384-well
[4] = system: K. pneumoniae; assay: as above; type: cell-based, Klebsiella pneumoniae; conditions: 50 μM final drug concentration; for AK-based Prestwick Library Screening Results: K. pneumoniae (increase in extracellular AK activity) / AK-based Prestwick library screening result, K. pneumoniae (fold increase in extracellular AK activity): planktonic K. pneumoniae; for AK-based Prestwick Library Screening Results: K. pneumoniae (increase in extracellular AK activity): 384-well
[5] = system: E. cloacae; assay: as above; type: cell-based, Enterobacter cloacae; conditions: 50 μM final drug concentration; for AK-based Prestwick Library Screening Results: E. cloacae (increase in extracellular AK activity) / AK-based Prestwick library screening result, E. cloacae (fold increase in extracellular AK activity): planktonic E. cloacae; for AK-based Prestwick Library Screening Results: E. cloacae (increase in extracellular AK activity): 384-well
[6] = system: S. aureus strain USA300-0114; assay: as above; type: cell-based, Staphylococcus aureus; conditions: 50 μM final drug concentration; for AK-based Prestwick Library Screening Results: S. aureus (increase in extracellular AK activity) / AK-based Prestwick library screening result, S. aureus (fold increase in extracellular AK activity): planktonic S. aureus; for AK-based Prestwick Library Screening Results: S. aureus (increase in extracellular AK activity): 384-well
[7] = system: A. baumannii strain 98-37-09; assay: as above; type: cell-based, Acinetobacter baumannii; conditions: 50 μM final drug concentration; for AK-based Prestwick Library Screening Results: A. baumannii (increase in extracellular AK activity) / AK-based Prestwick library screening result, A. baumannii (fold increase in extracellular AK activity): planktonic A. baumannii; for AK-based Prestwick Library Screening Results: A. baumannii (increase in extracellular AK activity): 384-well
[8] = system: E. coli; assay: as above; type: cell-based, Escherichia coli; conditions: 50 μM final drug concentration; for AK-based Prestwick Library Screening Results: E. coli (increase in extracellular AK activity) / AK-based Prestwick library screening result, E. coli (fold increase in extracellular AK activity): planktonic E. coli; for AK-based Prestwick Library Screening Results: E. coli (increase in extracellular AK activity): 384-well
[9] = cutoff for positive-scoring molecules 3-fold increase
[10] = planktonic, cutoff for positive-scoring molecules 3-fold increase
[11] = planktonic, cutoff for positive 3-fold increase
[12] = positive cutoff 3-fold increase

CC(C)(C)c1ccc(C(O)CCCN2CCC(C(O)c3ccccc3)CC2)cc1 (mixture of isomers) [Compound 31, 1-(4-(tert-butyl)phenyl)-4-(4-(hydroxy(phenyl)methyl)piperidin-1-yl)butan-1-ol]
MIC [1]: 128 µg/mL

CC(C)c1ccc(C(O)CCCN2CCC(C(O)(c3ccccc3)c3ccccc3)CC2)cc1 (stereo not shown) [Compound 1, 4-(4-(hydroxydiphenylmethyl)piperidin-1-yl)-1-(4-isopropylphenyl)butan-1-ol]
MIC ([1]; S. aureus, MHB, strain not given, read-out: MIC): 16 µg/mL (≈ 35 µM)

CC(C)(C)c1ccc(C(=O)CCCN2CCC(C(O)(c3ccccc3)c3ccccc3)CC2)cc1 [Compound 11, 1-(4-(tert-butyl)phenyl)-4-(4-(hydroxydiphenylmethyl)piperidin-1-yl)butan-1-one]
MIC [1]: 8 µg/mL (≈ 17 µM)

Pyrantel tartrate
AK-based Prestwick Library Screening Results: E. faecium (increase in extracellular AK activity) [2, 9]: 1.1 | AK-based Prestwick Library Screening Results: P. aeruginosa (increase in extracellular AK activity) [3, 9]: 1.2 | AK-based Prestwick Library Screening Results: K. pneumoniae (increase in extracellular AK activity) [4, 9]: 0.9 | AK-based Prestwick Library Screening Results: E. cloacae (increase in extracellular AK activity) [5, 9]: 1.4 | AK-based Prestwick Library Screening Results: S. aureus (increase in extracellular AK activity) [6, 9]: 1.2 | AK-based Prestwick Library Screening Results: A. baumannii (increase in extracellular AK activity) [7, 9]: 1.1 | AK-based Prestwick Library Screening Results: E. coli (increase in extracellular AK activity) [8, 9]: 1.3

Retrorsine
AK-based Prestwick Library Screening Results, E. faecium (fold increase in extracellular AK activity) ([2]; planktonic, […]): 1.0 | AK-based Prestwick Library Screening Results, P. aeruginosa (fold increase in extracellular AK activity) ([3]; planktonic, […]): 1.2 | AK-based Prestwick Library Screening Results, K. pneumoniae (fold increase in extracellular AK activity) ([4]; planktonic, […]): 1.2 | AK-based Prestwick Library Screening Results, E. cloacae (fold increase in extracellular AK activity) ([5]; planktonic, […]): 1.5 | AK-based Prestwick Library Screening Results, S. aureus (fold increase in extracellular AK activity) ([6]; planktonic, […]): 1.2 | AK-based Prestwick Library Screening Results, A. baumannii (fold increase in extracellular AK activity) ([7]; planktonic, […]): 1.2 | AK-based Prestwick Library Screening Results, E. coli (fold increase in extracellular AK activity) ([8]; planktonic, […]): 1.3

S(−)Eticlopride hydrochloride
AK-based Prestwick Library Screening Results, E. faecium (fold increase in extracellular AK activity) [2, 9]: 1.0 | AK-based Prestwick Library Screening Results, P. aeruginosa (fold increase in extracellular AK activity) [3, 9]: 1.3 | AK-based Prestwick Library Screening Results, K. pneumoniae (fold increase in extracellular AK activity) [4, 9]: 1.1 | AK-based Prestwick Library Screening Results, E. cloacae (fold increase in extracellular AK activity) [5, 9]: 1.8 | AK-based Prestwick Library Screening Results, S. aureus (fold increase in extracellular AK activity) [6, 9]: 1.6 | AK-based Prestwick Library Screening Results, A. baumannii (fold increase in extracellular AK activity) [7, 9]: 1.0 | AK-based Prestwick Library Screening Results, E. coli (fold increase in extracellular AK activity) [8, 9]: 0.9

Spiramycin
AK-based Prestwick Library Screening Results, E. faecium (fold increase in extracellular AK activity) [2, 10]: 1.0 | AK-based Prestwick Library Screening Results, P. aeruginosa (fold increase in extracellular AK activity) [3, 10]: 0.7 | AK-based Prestwick Library Screening Results, K. pneumoniae (fold increase in extracellular AK activity) [4, 10]: 0.8 | AK-based Prestwick Library Screening Results, E. cloacae (fold increase in extracellular AK activity) [5, 10]: 1.2 | AK-based Prestwick Library Screening Results, S. aureus (fold increase in extracellular AK activity) [6, 10]: 6.6 | AK-based Prestwick Library Screening Results, A. baumannii (fold increase in extracellular AK activity) [7, 10]: 0.9 | AK-based Prestwick Library Screening Results, E. coli (fold increase in extracellular AK activity) [8, 10]: 0.9

Terbutaline hemisulfate
AK-based Prestwick Library Screening Results, E. faecium (fold increase in extracellular AK activity) [2, 11]: 1.0 | AK-based Prestwick Library Screening Results, P. aeruginosa (fold increase in extracellular AK activity) [3, 11]: 1.1 | AK-based Prestwick Library Screening Results, K. pneumoniae (fold increase in extracellular AK activity) [4, 11]: 1.3 | AK-based Prestwick Library Screening Results, E. cloacae (fold increase in extracellular AK activity) [5, 11]: 1.4 | AK-based Prestwick Library Screening Results, S. aureus (fold increase in extracellular AK activity) [6, 11]: 1.1 | AK-based Prestwick Library Screening Results, A. baumannii (fold increase in extracellular AK activity) [7, 11]: 1.1 | AK-based Prestwick Library Screening Results, E. coli (fold increase in extracellular AK activity) [8, 11]: 1.2

Thioproperazine dimesylate
AK-based Prestwick Library Screening Results: E. faecium (increase in extracellular AK activity) [2, 9]: 1.0 | AK-based Prestwick Library Screening Results: P. aeruginosa (increase in extracellular AK activity) [3, 9]: 1.1 | AK-based Prestwick Library Screening Results: K. pneumoniae (increase in extracellular AK activity) [4, 9]: 1.1 | AK-based Prestwick Library Screening Results: E. cloacae (increase in extracellular AK activity) [5, 9]: 1.3 | AK-based Prestwick Library Screening Results: S. aureus (increase in extracellular AK activity) [6, 9]: 1.0 | AK-based Prestwick Library Screening Results: A. baumannii (increase in extracellular AK activity) [7, 9]: 1.7 | AK-based Prestwick Library Screening Results: E. coli (increase in extracellular AK activity) [8, 9]: 1.5

Timolol maleate salt
AK-based Prestwick Library Screening Results, E. faecium (fold increase in extracellular AK activity) [2, 9]: 1.0 | AK-based Prestwick Library Screening Results, P. aeruginosa (fold increase in extracellular AK activity) [3, 9]: 1.1 | AK-based Prestwick Library Screening Results, K. pneumoniae (fold increase in extracellular AK activity) [4, 9]: 1.1 | AK-based Prestwick Library Screening Results, E. cloacae (fold increase in extracellular AK activity) [5, 9]: 1.4 | AK-based Prestwick Library Screening Results, S. aureus (fold increase in extracellular AK activity) [6, 9]: 1.3 | AK-based Prestwick Library Screening Results, A. baumannii (fold increase in extracellular AK activity) [7, 9]: 1.5 | AK-based Prestwick Library Screening Results, E. coli (fold increase in extracellular AK activity) [8, 9]: 1.3

Trimeprazine tartrate
AK-based Prestwick Library Screening Results, E. faecium (fold increase in extracellular AK activity) [2, 9]: 1.0 | AK-based Prestwick Library Screening Results, P. aeruginosa (fold increase in extracellular AK activity) [3, 9]: 1.2 | AK-based Prestwick Library Screening Results, K. pneumoniae (fold increase in extracellular AK activity) [4, 9]: 0.9 | AK-based Prestwick Library Screening Results, E. cloacae (fold increase in extracellular AK activity) [5, 9]: 1.5 | AK-based Prestwick Library Screening Results, S. aureus (fold increase in extracellular AK activity) [6, 9]: 1.1 | AK-based Prestwick Library Screening Results, A. baumannii (fold increase in extracellular AK activity) [7, 9]: 1.1 | AK-based Prestwick Library Screening Results, E. coli (fold increase in extracellular AK activity) [8, 9]: 1.2

Trimipramine maleate salt
AK-based Prestwick Library Screening Results, E. faecium (fold increase in extracellular AK activity) [2, 10]: 0.9 | AK-based Prestwick Library Screening Results, P. aeruginosa (fold increase in extracellular AK activity) [3, 10]: 0.6 | AK-based Prestwick Library Screening Results, K. pneumoniae (fold increase in extracellular AK activity) [4, 10]: 0.6 | AK-based Prestwick Library Screening Results, E. cloacae (fold increase in extracellular AK activity) [5, 10]: 0.6 | AK-based Prestwick Library Screening Results, S. aureus (fold increase in extracellular AK activity) [6, 10]: 0.5 | AK-based Prestwick Library Screening Results, A. baumannii (fold increase in extracellular AK activity) [7, 10]: 0.6 | AK-based Prestwick Library Screening Results, E. coli (fold increase in extracellular AK activity) [8, 10]: 0.6

Tyloxapol
AK-based Prestwick Library Screening Results, E. faecium (fold increase in extracellular AK activity) [2, 9]: 1.0 | AK-based Prestwick Library Screening Results, P. aeruginosa (fold increase in extracellular AK activity) [3, 9]: 1.2 | AK-based Prestwick Library Screening Results, K. pneumoniae (fold increase in extracellular AK activity) [4, 9]: 1.5 | AK-based Prestwick Library Screening Results, E. cloacae (fold increase in extracellular AK activity) [5, 9]: 1.2 | AK-based Prestwick Library Screening Results, S. aureus (fold increase in extracellular AK activity) [6, 9]: 1.4 | AK-based Prestwick Library Screening Results, A. baumannii (fold increase in extracellular AK activity) [7, 9]: 1.3 | AK-based Prestwick Library Screening Results, E. coli (fold increase in extracellular AK activity) ([8]; […]): 1.4

Verteporfin
AK-based Prestwick library screening result, E. faecium (fold increase in extracellular AK activity) [2, 12]: 1.2 | AK-based Prestwick library screening result, P. aeruginosa (fold increase in extracellular AK activity) [3, 12]: 0.8 | AK-based Prestwick library screening result, K. pneumoniae (fold increase in extracellular AK activity) [4, 12]: 0.8 | AK-based Prestwick library screening result, E. cloacae (fold increase in extracellular AK activity) [5, 12]: 1.6 | AK-based Prestwick library screening result, S. aureus (fold increase in extracellular AK activity) [6, 12]: 0.5 | AK-based Prestwick library screening result, A. baumannii (fold increase in extracellular AK activity) [7, 12]: 0.9 | AK-based Prestwick library screening result, E. coli (fold increase in extracellular AK activity) [8, 12]: 0.7

Viomycin sulfate
AK-based Prestwick library screening result, E. faecium (fold increase in extracellular AK activity) ([2]; […]): 1.0 | AK-based Prestwick library screening result, P. aeruginosa (fold increase in extracellular AK activity) ([3]; […]): 0.9 | AK-based Prestwick library screening result, K. pneumoniae (fold increase in extracellular AK activity) ([4]; […]): 0.9 | AK-based Prestwick library screening result, E. cloacae (fold increase in extracellular AK activity) ([5]; […]): 1.6 | AK-based Prestwick library screening result, S. aureus (fold increase in extracellular AK activity) ([6]; […]): 1.3 | AK-based Prestwick library screening result, A. baumannii (fold increase in extracellular AK activity) ([7]; […]): 1.1 | AK-based Prestwick library screening result, E. coli (fold increase in extracellular AK activity) ([8]; […]): 1.0

Vitamin K2
AK-based Prestwick library screening result, E. faecium (fold increase in extracellular AK activity) [2, 12]: 1.0 | AK-based Prestwick library screening result, P. aeruginosa (fold increase in extracellular AK activity) [3, 12]: 1.1 | AK-based Prestwick library screening result, K. pneumoniae (fold increase in extracellular AK activity) [4, 12]: 0.8 | AK-based Prestwick library screening result, E. cloacae (fold increase in extracellular AK activity) [5, 12]: 1.6 | AK-based Prestwick library screening result, S. aureus (fold increase in extracellular AK activity) [6, 12]: 1.8 | AK-based Prestwick library screening result, A. baumannii (fold increase in extracellular AK activity) [7, 12]: 1.1 | AK-based Prestwick library screening result, E. coli (fold increase in extracellular AK activity) [8, 12]: 0.9
